Measured values reported in patent US11565998B2, “Succinate prodrug, compositions containing the succinate prodrug and uses thereof” (ABLIVA AB, priority 2019, dated 2023).

Columns and labels:
[1] = Stability in purified (HPLC grade) or non-purified (tap) water; type: physicochemical; settings: room temperature, 6 days
Procedure: A side-by-side experiment of the stability of Compound 1 in ‘purified’ HPLC grade water (Fisher Scientific) and ‘non-purified’ tap water was set up. In brief, 1 mg/mL solutions of Compound 1 were generated in ‘purified’ HPLC grade water (Fisher Scientific) and ‘non-purified’ tap water. These were incubated at room temperature for up to 10 days. Concentration and purity of Compound 1 was assessed over time by HPLC in comparison to a standard (AUC of 8.21 RT peak at 230 nm for calculated concentration and AUC of Compound 1 peak vs impurities for purity analysis). Data presented is the average of two samples.

[2] = test system: microsomes (Sekisui XenoTech); assay: Succinate release on incubation with microsomes (LCMS); type: in vitro ADME; settings: for Compound 1 detected by LCMS: microsomes 0.5 mg/mL, NADPH, malonate
Procedure: In brief, a stock of Compound 1 Batch 12 was prepared in 50/50 DMSO/MeCN (200 mM, ×200). This mixture was then diluted 1 in 10 into microsome buffer (20 mM, ×20) consisting of K2HPO4 (Sigma Aldrich, 13.9 g/L, anhydrous), KH2PO4 (Sigma Aldrich, 2.72 g/L, anhydrous), MgCl2.6H2O (Fisher, 1.02 g/L) and EDTA (Sigma Aldrich, 0.375 g/L) dissolved in HPLC grade water. A 200 mM malonic acid (Sigma Aldrich) stock was then prepared in microsome buffer (200 mM, ×20). A 20 mM NADPH stock was also prepared in microsome buffer (20 mM, ×10). A stock of microsomes (Sekisui XenoTech, 0.625 mg/ml) was prepared in a 7 ml vial. Samples were prepared for each timepoint (T=0, 5, 15, 60 mins) as follows: 80 μL microsome stock (0.5 mg/mL final concentration), 5 μL of Compound stock ([…]), 5 μL of malonate stock (10 mM final concentration). The T=0 sample was quenched by adding 100 μL MeOH. Reaction of all timepoints was then initiated with addition of 10 μL NADPH stock (2 mM final concentration). At each timepoint, the reaction was terminated by the addition of 100 μL MeOH. Samples were shaken for 1 min, placed on ice for 10 min, then centrifuged at 3000 rpm for 10 minutes. The supernatant was then analysed by LCMS.

[3] = Mineral instability (inorganic salts in water); type: physicochemical; settings: 1 mg/ml, room temperature
Procedure: Compound 1 Batch 14 (2-3 mg) was dissolved in water for injection at room temperature (WFI) (1 mg/ml) containing different sources of minerals commonly found in tap water (with different accompanying counter ions to be able to distinguish differences between the effects of cation or anion) and samples were taken at different time intervals for HPLC analysis.
Mineral sources used in the form of inorganic salts:
CuCl2, CaCl2), NiSO4, CoCl2, NH4Cl, MnCl2, NaF, NaNO3, CuSO4, Ca(NO3)2, AlSO4, CaCO3, (NH4)2CO3.

For `COC(=O)CCC(=O)SCCNC(C)=O` [Compound 1, Methyl 3-[(2-acetylaminoethylthio)carbonyl]propionate], the “degradation (loss in purity and assay)” value ([1]; (non-purified) tap water) was “Significant degradation”, the “degradation (loss in purity and assay)” value ([1]; (purified) HPLC grade water) was “not observed” and the succinic acid release ([2]; incubated with microsomes) was “releases succinic acid over time”. For the same molecule, the “Compound 1 detected by LCMS” value ([2]; batch 12, 0 min) was 0.934 mM, the “Compound 1 detected by LCMS” value ([2]; batch 12, 5 min) was 0.688 mM and the “Compound 1 detected by LCMS” value ([2]; batch 12, 15 min) was 0.388 mM. The “Compound 1 detected by LCMS” value ([2]; batch 12, 60 min) was 0.080 mM, the “Percentage of Compound 1 remaining compared to T = 0” value (“Percentage of Compound 1 remaining” for short) ([3]; (NH4)2CO3 in water, batch 14, day 0) was 100% and the “Percentage of Compound 1 remaining” value ([3]; (NH4)2CO3 in water, batch 14, day 7) was 91.3%. For the same molecule, the “Percentage of Compound 1 remaining” value ([3]; (NH4)2CO3 in water, batch 14, day 14) was 87.4%, the “Percentage of Compound 1 remaining” value ([3]; AlSO4 in water, batch 14, day 0) was 100% and the “Percentage of Compound 1 remaining” value ([3]; AlSO4 in water, batch 14, day 7) was 99.8%. The “Percentage of Compound 1 remaining” value ([3]; AlSO4 in water, batch 14, day 14) was 100%, the “Percentage of Compound 1 remaining” value ([3]; Ca(NO3)2 in water, batch 14, day 0) was 100% and the “Percentage of Compound 1 remaining” value ([3]; Ca(NO3)2 in water, batch 14, day 7) was 99.4%. The “Percentage of Compound 1 remaining” value ([3]; Ca(NO3)2 in water, batch 14, day 14) was 98.9%, the “Percentage of Compound 1 remaining” value ([3]; CaCO3 in water, batch 14, day 0) was 100% and the “Percentage of Compound 1 remaining” value ([3]; CaCO3 in water, batch 14, day 7) was 79.5%. For the same molecule, the “Percentage of Compound 1 remaining” value ([3]; CaCO3 in water, batch 14, day 14) was 66.0%, the “Percentage of Compound 1 remaining” value ([3]; CaCl2 in water, batch 14, day 0) was 100% and the “Percentage of Compound 1 remaining” value ([3]; CaCl2 in water, batch 14, day 7) was 100%. The “Percentage of Compound 1 remaining” value ([3]; CaCl2 in water, batch 14, day 14) was 97.9%, the “Percentage of Compound 1 remaining” value ([3]; CoCl2 in water, batch 14, day 0) was 100% and the “Percentage of Compound 1 remaining” value ([3]; CoCl2 in water, batch 14, day 7) was 101%. The “Percentage of Compound 1 remaining” value ([3]; CoCl2 in water, batch 14, day 14) was 101%, the “Percentage of Compound 1 remaining” value ([3]; CuCl2 in water, batch 14, day 0) was 100% and the “Percentage of Compound 1 remaining” value ([3]; CuCl2 in water, batch 14, day 7) was 99.5%. The “Percentage of Compound 1 remaining” value ([3]; CuCl2 in water, batch 14, day 14) was 98.3%, the “Percentage of Compound 1 remaining” value ([3]; CuSO4 in water, batch 14, day 0) was 100% and the “Percentage of Compound 1 remaining” value ([3]; CuSO4 in water, batch 14, day 7) was 100%. The “Percentage of Compound 1 remaining” value ([3]; CuSO4 in water, batch 14, day 14) was 99.4%, the “Percentage of Compound 1 remaining” value ([3]; MnCl2 in water, batch 14, day 0) was 100% and the “Percentage of Compound 1 remaining” value ([3]; MnCl2 in water, batch 14, day 7) was 98.9%. For the same molecule, the “Percentage of Compound 1 remaining” value ([3]; MnCl2 in water, batch 14, day 14) was 99.2%, the “Percentage of Compound 1 remaining” value ([3]; NH4Cl in water, batch 14, day 0) was 100% and the “Percentage of Compound 1 remaining” value ([3]; NH4Cl in water, batch 14, day 7) was 101%. For the same molecule, the “Percentage of Compound 1 remaining” value ([3]; NH4Cl in water, batch 14, day 14) was 99.8%, the “Percentage of Compound 1 remaining” value ([3]; NaF in water, batch 14, day 0) was 100% and the “Percentage of Compound 1 remaining” value ([3]; NaF in water, batch 14, day 7) was 101%. For the same molecule, the “Percentage of Compound 1 remaining” value ([3]; NaF in water, batch 14, day 14) was 100%, the “Percentage of Compound 1 remaining” value ([3]; NaNO3 in water, batch 14, day 0) was 100% and the “Percentage of Compound 1 remaining” value ([3]; NaNO3 in water, batch 14, day 7) was 99.2%. For the same molecule, the “Percentage of Compound 1 remaining” value ([3]; NaNO3 in water, batch 14, day 14) was 99.4%, the “Percentage of Compound 1 remaining” value ([3]; NiSO4 in water, batch 14, day 0) was 100% and the “Percentage of Compound 1 remaining” value ([3]; NiSO4 in water, batch 14, day 7) was 98.4%. For the same molecule, the “Percentage of Compound 1 remaining” value ([3]; NiSO4 in water, batch 14, day 14) was 99.1%.
